Among the targets are STK38L (Homo sapiens, UniProt Q9Y2H1); NEK6 (Homo sapiens, UniProt Q9HC98); ERN1 (Homo sapiens, UniProt O75460); KIT (Homo sapiens, UniProt P10721); TAOK1 (Homo sapiens, UniProt Q7L7X3).
What all share (assay): biochemical
Common to all, as to parameters: endogenous in cells; host or cells: K562 cell extract; species or system K562 (extract); replicate k of n = 2 (each experiment ID is one independent experiment; two experiment IDs per compound)
Holding throughout (conditions): read-out: KDapp

In a further assay the target is T1, PHKG2 (Homo sapiens, UniProt P15735).
T1 sequence (P15735 1-406): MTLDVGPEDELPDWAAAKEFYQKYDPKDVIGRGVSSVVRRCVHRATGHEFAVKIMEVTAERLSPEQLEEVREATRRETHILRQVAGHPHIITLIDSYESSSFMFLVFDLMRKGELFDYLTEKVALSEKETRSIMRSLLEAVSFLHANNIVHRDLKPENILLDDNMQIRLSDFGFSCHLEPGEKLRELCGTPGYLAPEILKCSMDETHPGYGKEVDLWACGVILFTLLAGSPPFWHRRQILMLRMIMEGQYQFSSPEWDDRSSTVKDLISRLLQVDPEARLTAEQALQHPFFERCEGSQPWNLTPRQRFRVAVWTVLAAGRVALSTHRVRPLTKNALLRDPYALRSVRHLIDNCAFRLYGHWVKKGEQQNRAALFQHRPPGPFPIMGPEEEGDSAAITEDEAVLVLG

A further assay has as its target T2, STK4 (Homo sapiens, UniProt Q13043).
T2 sequence (Q13043 1-487): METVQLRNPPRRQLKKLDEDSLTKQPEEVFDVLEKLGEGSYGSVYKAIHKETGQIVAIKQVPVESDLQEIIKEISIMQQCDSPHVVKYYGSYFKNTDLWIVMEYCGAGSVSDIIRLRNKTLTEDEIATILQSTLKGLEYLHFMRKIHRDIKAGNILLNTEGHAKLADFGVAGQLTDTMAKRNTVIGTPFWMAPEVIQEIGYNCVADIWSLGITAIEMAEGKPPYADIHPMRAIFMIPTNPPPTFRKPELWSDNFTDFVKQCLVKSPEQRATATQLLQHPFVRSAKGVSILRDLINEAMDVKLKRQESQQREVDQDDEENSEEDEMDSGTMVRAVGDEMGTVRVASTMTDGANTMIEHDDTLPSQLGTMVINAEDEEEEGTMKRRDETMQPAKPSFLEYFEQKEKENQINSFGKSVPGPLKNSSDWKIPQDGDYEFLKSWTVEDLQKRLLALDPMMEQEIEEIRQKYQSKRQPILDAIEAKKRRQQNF

The target of the next assay is T3, TP53RK (Homo sapiens, UniProt Q96S44).
T3 sequence (Q96S44 1-253): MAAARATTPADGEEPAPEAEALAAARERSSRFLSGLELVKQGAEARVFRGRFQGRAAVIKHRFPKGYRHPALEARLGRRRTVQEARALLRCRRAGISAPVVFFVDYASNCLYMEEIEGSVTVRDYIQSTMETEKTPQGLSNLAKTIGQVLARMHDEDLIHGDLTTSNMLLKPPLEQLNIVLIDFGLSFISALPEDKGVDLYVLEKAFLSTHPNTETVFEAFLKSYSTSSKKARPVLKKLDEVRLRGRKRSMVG

The values that follow come from paper PMC4774911, “Biochemical Screening of Five Protein Kinases from Plasmodium falciparum against 14,000 Cell-Active Compounds” (PLoS ONE, 2016).

pKd: −log10 of the molar value. Values joined by “and” are separate entries in the source; they are usually repeats but may differ in a detail not shown here. Equal entries are not always repeated.

KIT, sequence (P10721 whole entry): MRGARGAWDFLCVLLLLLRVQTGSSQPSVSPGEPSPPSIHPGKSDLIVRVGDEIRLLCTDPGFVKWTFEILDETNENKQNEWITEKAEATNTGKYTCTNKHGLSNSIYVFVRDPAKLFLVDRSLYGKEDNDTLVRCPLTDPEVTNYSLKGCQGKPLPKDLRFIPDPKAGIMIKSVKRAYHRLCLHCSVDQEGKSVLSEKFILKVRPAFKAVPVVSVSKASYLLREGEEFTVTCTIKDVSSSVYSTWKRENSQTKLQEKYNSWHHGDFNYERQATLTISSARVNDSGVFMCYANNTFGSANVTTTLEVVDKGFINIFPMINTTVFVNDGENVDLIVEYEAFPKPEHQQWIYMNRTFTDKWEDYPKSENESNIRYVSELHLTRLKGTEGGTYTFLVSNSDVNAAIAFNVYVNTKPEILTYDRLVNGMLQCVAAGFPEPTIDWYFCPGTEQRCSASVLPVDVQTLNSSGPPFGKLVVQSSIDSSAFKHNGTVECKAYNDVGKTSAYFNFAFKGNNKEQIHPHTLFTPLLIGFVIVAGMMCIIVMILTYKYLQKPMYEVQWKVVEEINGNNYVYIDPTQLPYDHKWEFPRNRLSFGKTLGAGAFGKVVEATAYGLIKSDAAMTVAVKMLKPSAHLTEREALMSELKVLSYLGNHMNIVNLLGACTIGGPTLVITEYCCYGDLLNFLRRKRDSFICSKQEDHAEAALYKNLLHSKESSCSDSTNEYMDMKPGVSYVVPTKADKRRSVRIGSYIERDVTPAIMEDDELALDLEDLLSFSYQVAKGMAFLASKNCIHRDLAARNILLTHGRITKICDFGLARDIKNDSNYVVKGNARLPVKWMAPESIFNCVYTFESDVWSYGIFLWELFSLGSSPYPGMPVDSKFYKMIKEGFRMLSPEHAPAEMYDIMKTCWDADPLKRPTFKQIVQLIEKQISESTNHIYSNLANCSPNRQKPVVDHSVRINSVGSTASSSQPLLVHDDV
STK38L, sequence (Q9Y2H1 whole entry): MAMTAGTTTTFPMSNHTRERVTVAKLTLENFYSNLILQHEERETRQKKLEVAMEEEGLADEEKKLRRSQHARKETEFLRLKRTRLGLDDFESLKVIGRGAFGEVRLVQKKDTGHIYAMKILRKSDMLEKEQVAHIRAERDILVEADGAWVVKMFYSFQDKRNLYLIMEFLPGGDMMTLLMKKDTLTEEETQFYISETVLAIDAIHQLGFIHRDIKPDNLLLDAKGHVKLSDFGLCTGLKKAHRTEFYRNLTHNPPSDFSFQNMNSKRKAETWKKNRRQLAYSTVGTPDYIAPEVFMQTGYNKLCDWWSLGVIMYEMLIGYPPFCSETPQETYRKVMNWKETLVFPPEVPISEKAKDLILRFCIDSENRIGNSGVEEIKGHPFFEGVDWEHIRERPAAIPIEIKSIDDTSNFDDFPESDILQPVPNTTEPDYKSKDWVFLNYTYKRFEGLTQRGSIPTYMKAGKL
ERN1, sequence (O75460 whole entry): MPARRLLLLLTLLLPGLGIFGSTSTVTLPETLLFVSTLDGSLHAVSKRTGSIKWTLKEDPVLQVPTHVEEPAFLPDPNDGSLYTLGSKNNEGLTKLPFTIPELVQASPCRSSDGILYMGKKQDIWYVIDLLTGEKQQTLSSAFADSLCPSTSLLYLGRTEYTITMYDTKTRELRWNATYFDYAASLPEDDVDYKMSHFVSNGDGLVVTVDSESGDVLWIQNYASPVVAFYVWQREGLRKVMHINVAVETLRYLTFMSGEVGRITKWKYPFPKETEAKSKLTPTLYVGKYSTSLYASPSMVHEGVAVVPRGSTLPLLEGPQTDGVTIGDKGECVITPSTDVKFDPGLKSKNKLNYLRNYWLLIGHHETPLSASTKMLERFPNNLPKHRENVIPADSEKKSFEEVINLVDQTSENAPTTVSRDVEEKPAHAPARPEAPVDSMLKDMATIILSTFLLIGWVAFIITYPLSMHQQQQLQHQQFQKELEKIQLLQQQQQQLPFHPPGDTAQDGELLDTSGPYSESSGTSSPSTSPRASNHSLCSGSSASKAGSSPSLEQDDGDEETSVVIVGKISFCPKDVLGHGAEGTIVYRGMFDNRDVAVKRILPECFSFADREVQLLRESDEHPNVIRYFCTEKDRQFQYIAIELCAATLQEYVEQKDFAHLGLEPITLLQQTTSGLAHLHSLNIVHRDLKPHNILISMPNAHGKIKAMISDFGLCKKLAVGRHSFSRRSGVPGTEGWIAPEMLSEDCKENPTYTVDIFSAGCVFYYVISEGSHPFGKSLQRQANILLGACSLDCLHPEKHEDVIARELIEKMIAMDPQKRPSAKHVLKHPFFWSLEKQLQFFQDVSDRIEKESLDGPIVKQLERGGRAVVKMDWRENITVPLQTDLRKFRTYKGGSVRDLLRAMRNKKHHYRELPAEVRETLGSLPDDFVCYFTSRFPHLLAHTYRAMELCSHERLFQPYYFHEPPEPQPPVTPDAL
NEK6, sequence (Q9HC98 whole entry): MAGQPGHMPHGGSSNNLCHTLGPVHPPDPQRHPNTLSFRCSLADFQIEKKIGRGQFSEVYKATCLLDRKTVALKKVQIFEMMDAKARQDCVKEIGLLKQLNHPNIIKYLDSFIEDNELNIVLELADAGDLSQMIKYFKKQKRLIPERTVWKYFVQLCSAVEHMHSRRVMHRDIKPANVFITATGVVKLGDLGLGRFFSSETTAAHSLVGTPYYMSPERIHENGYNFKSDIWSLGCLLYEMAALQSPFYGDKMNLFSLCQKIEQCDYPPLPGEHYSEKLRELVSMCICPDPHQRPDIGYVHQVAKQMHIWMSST
TAOK1, sequence (Q7L7X3 whole entry): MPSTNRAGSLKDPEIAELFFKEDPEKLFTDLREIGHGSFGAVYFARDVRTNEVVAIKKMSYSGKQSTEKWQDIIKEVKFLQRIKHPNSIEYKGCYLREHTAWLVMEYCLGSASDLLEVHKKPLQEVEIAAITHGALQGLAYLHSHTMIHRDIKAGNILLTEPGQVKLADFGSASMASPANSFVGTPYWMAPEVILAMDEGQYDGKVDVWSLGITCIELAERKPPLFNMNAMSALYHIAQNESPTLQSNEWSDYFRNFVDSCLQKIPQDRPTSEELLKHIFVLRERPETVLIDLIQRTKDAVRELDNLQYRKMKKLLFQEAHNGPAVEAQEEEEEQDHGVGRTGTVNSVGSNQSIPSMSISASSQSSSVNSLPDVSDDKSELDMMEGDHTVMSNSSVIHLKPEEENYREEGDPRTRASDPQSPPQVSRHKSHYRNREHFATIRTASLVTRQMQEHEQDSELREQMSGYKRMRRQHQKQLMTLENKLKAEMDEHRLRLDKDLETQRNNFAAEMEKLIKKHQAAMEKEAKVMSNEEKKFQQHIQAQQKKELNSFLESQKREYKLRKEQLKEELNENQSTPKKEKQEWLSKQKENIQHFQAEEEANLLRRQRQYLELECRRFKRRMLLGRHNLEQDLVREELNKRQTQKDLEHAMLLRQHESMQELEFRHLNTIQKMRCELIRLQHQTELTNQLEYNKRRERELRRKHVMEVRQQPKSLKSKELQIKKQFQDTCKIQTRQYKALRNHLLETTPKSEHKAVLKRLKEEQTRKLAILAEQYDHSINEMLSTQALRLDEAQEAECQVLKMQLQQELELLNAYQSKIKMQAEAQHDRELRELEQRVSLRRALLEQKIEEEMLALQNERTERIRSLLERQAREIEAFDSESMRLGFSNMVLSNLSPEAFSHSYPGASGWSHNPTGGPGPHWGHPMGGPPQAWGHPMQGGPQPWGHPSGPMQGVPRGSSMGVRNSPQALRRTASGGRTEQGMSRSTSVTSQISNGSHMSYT

Take `CN1CCN(c2ccc(Nc3ncc(C#N)c(Nc4ccccc4C(N)=O)n3)cc2)CC1.Cl` [TCMDC-134116]: the pKd on PHKG2 was 5.65; on STK38L it was 6.24; at STK4, 6.92 and 6.85; at NEK6 it was 6.79; at TP53RK, 5.42; on ERN1, 6.90. Further, on KIT, the pKd is 5.96.

Turning to `CN(C)CC(O)COc1ccc(Nc2ncc([N+](=O)[O-])c(Nc3ccccc3O)n2)cc1.O=C(O)C(F)(F)F` (centres unmarked) [TCMDC-141399], at TAOK1, the pKd is 5.37.
